Assay [1] has as its system barnyardgrass (Echinochloa oryzicola vasing). Nature of the assay: Growth inhibition of barnyardgrass in paddy soil pots, application under submerged condition, visual rating (observed value) and Colby expected value. In kind it is in vivo. The conditions noted are these: for inhibition at 225 g/ha: read-out: Growth inhibition rate (%) Observed, 2.25 g/a.
Source text: (§1) When the herbicidal activity in a case where two active ingredients are combined, is larger than the simple sum of the respective herbicidal activities of the two active ingredients (the expected activity), it is called a synergistic effect. The activity expected by the combination of two active ingredients can be calculated as follows (Colby S. R., “Weed”, vol. 15, p. 20-22, 1967). E=p+q−(p×q÷100) where p: growth inhibition rate when treated with x (g/a) of herbicide X,
(§2) q: growth inhibition rate when treated with y (g/a) of herbicide Y,
(§3) E: growth inhibition rate expected when treated with x (g/a) of herbicide X and y (g/a) of herbicide Y.
(§4) Namely, when the actual growth inhibition rate (observed value) is larger than the growth inhibition rate by the above calculation (expected value), the activity by the combination can be regarded as showing a synergistic effect.
Paddy field soil was put into a 1/10,000 are pot, and seeds of barnyardgrass (Echinochloa oryzicola vasing) were sown and left to stand under an irrigated condition with a water depth of 3.5 cm. When barnyardgrass reached 2.0 to 2.5 leaf stage, wettable powders of compound A2 and compound (B1.1) were, respectively, diluted with water and applied under submerged condition so that the active ingredients became the prescribed amounts, respectively. The state of growth was visually observed 21 days after application, and the growth inhibition rate (%) evaluated in accordance with the following evaluation standard (observed value) and the growth inhibition rate (%) calculated by the above-mentioned Colby method (expected value) are shown in Table 1.
(§5) Growth inhibition rate (%)=0% (equivalent to the non-treated area) to 100% (complete kill)
(§6) Paddy field soil was put into a 1/10,000 are pot, and seeds of barnyardgrass (Echinochloa oryzicola vasing) were sown and left to stand under an irrigated condition with a water depth of 3.5 cm. When barnyardgrass reached 2.0 to 2.5 leaf stage, wettable powders of compound A2 and compound (B2.1) were, respectively, diluted with water and applied under submerged condition so that the active ingredients became the prescribed amounts, respectively. The state of growth was visually observed 21 days after application, and evaluation and calculation were carried out in the same manner as in the above Test Example 1.
as §6, with “leaf stage, a wettable powder” for “leaf stage, wettable powders”, “a wettable powder of compound” for “stage, wettable powders of compound”, “A2 and an emulsifiable concentrate of compound (B3.1)” for “A2 and compound (B2.1)”, “of compound (B3.1) were, respectively,” for “and compound (B2.1) were, respectively,”
as §6, with “(B4.1)” for “(B2.1)”
Paddy field soil was put into a 1/10,000 are pot, and seeds of barnyardgrass (Echinochloa oryzicola vasing) were sown and left to stand under an irrigated condition with a water depth of 3.5 cm. […]

For assay [2], the system named is Japanese bulrush (Scirpus juncoides). As to the kind of experiment: Growth inhibition of Japanese bulrush in paddy soil pots, application under submerged condition, visual rating and Colby expected value. Format: in vivo.
Source text: as §1, §2, §3, §4, §5
(§7) Paddy field soil was put into a 1/10,000 are pot, and seeds of Japanese bulrush (Scirpus juncoides) were sown and left to stand under an irrigated condition with a water depth of 3.5 cm. When Japanese bulrush reached 2.3 to 2.6 leaf stage, a wettable powder of compound A2 and granules of compound (B7.1) were, respectively, diluted with water and applied under submerged condition so that the active ingredients became the prescribed amounts, respectively. The state of growth was visually observed 10 days after application, and evaluation and calculation were carried out in the same manner as in the above Test Example 1.
as §7, with “an emulsifiable concentrate” for “granules”, “(B3.1)” for “(B7.1)”
Paddy field soil was put into a 1/10,000 are pot, and seeds of Japanese bulrush (Scirpus juncoides) were sown and left to stand under an irrigated condition with a water depth of 3.5 cm. When Japanese bulrush reached 2 leaf stage, wettable powders of compound A2, C2 and C4 and granules of compound C6 were, respectively, diluted with water and applied under submerged condition so that the active ingredients became the prescribed amounts, respectively.
Paddy field soil was put into a 1/10,000 are pot, and seeds of Japanese bulrush (Scirpus juncoides) were sown and left to stand under an irrigated condition with a water depth of 3.5 cm. When Japanese bulrush reached 2 leaf stage, wettable powders of compound A2, C2 and C4 and granules of compound C6 were, respectively, diluted with water and applied under submerged condition so that the active ingredients became the prescribed amounts, respectively. The state of growth was visually observed 19 days after application, and the growth inhibition rate (%) evaluated in the same manner as in the above Test Example 1 (observed value) and the growth inhibition rate (%) calculated by the above-mentioned Colby method (expected value) are shown in Tables 36, 37 and 38.
Paddy field soil was put into a 1/10,000 are pot, and seeds of Japanese bulrush (Scirpus juncoides) were sown and left to stand under an irrigated condition with a water depth of 3.5 cm. When Japanese bulrush reached 3 leaf stage, wettable powders of compound A2 and compound (D2.2) were, respectively, diluted with water and applied under submerged condition so that the active ingredients became the prescribed amounts, respectively. […]

Where [3] appears, read: 0.5 g/a, 2 leaf stage, 19 days after application, Test Example 33.
Setting [4] is: 1.0 g/a, 2 leaf stage, 19 days after application, Test Example 33.
The mark [5] stands for this setting: 1.5 g/a, 2 leaf stage, 19 days after application, Test Example 34.
Setting [6] is: 2.0 g/a, 2 leaf stage, 19 days after application, Test Example 33.
Where [7] appears, read: 3.75 g/a, 2 leaf stage, 19 days after application, Test Example 34.
The mark [8] stands for this setting: 10 g/a, 2 leaf stage, 19 days after application, Test Example 34.

SMILES strings stand for the structures. Like-named read-outs stand apart in the source and are kept apart here.

Regarding `CCNc1nc(NCC)nc(SC)n1` [Compound (B5.1), simetryn], in assay [1] (Echinochloa oryzicola, soil, 504 h, read-out: Growth inhibition rate (%) Observed, 1.69 g/a, 1.0 to 3.0 leaf stage, 21 days after application), the inhibition at 169 g/ha turned out to be 3%. For the same compound, the inhibition at 225 g/ha is 2% in assay [1] (Echinochloa oryzicola, soil, 504 h, 2.0 to 2.5 leaf stage, 21 days after application) and 5% in assay [1] (Echinochloa oryzicola, soil, 696 h, 2.4 to 3.2 leaf stage, 29 days after application, Test Example 45). Also, in assay [1] (Echinochloa oryzicola, soil, 504 h, read-out: Growth inhibition rate (%) Observed, 3.38 g/a, 1.0 to 3.0 leaf stage, 21 days after application), the inhibition at 338 g/ha is 10%. For the same compound, the inhibition at 450 g/ha in assay [1] (Echinochloa oryzicola, soil, 504 h, read-out: Growth inhibition rate (%) Observed, 4.5 g/a, 2.0 to 2.5 leaf stage, 21 days after application) stood at 5%; in assay [2] (Schoenoplectiella juncoides, soil, 696 h, read-out: Growth inhibition rate (%) Observed), 25%.
For the compound `CC(C)N1C(=O)c2ccccc2NS1(=O)=O` [Compound (B7.1), bentazone], the inhibition at 3300 g/ha in assay [1] (Echinochloa oryzicola, soil, 504 h, 33 g/a, 3.0 to 3.3 leaf stage, 21 days after application, read-out: Growth inhibition rate (%) Observed) worked out at 0%. The inhibition at 4400 g/ha in assay [1] (Echinochloa oryzicola, soil, 504 h, 44 g/a, 3.0 to 3.3 leaf stage, 21 days after application, read-out: Growth inhibition rate (%) Observed) was found to be 0%. Also, the inhibition at 413 g/ha in assay [2] (Schoenoplectiella juncoides, soil, 240 h, 4.13 g/a, 2.3 to 2.6 leaf stage, 10 days after application, read-out: Growth inhibition rate (%) Observed) was determined as 10%. The inhibition at 825 g/ha in assay [2] (Schoenoplectiella juncoides, soil, 240 h, 8.25 g/a, 2.3 to 2.6 leaf stage, 10 days after application, read-out: Growth inhibition rate (%) Observed) was found to be 10%. In addition, the inhibition at 1650 g/ha in assay [2] (Schoenoplectiella juncoides, soil, 240 h, 16.5 g/a, 2.3 to 2.6 leaf stage, 10 days after application, read-out: Growth inhibition rate (%) Observed) is 13%. The inhibition at 750 g/ha in assay [2] (Schoenoplectiella juncoides, soil, 504 h, 7.5 g/a, 3.8 to 4.2 leaf stage, 21 days after application, Test Example 61, read-out: Growth inhibition rate (%) Observed) worked out at 98%.
For the compound `COc1cc(OC)nc(NC(=O)NS(=O)(=O)c2cccnc2C(O)C(C)F)n1` (stereo not shown) [Compound A1], the “Growth inhibition rate (%) Observed” value was 83% in assay [1] (0.083 g/a, 1.0 to 3.0 leaf stage, 21 days after application); 55% in assay [1] (0.083 g/a, 2.8 to 3.2 leaf stage, 19 days after application, Test Examples 62-65); 57% in assay [1] (0.083 g/a, 2.8 to 3.2 leaf stage, 21 days after application, Test Examples 39-43); 40% in assay [1] (0.083 g/a, 2.8 to 3.4 leaf stage, 14 days after application, Test Examples 66-72); 43% in assay [1] (0.083 g/a, 3.0 to 3.3 leaf stage, 21 days after application); 97% in assay [1] (0.11 g/a, 1.0 to 3.0 leaf stage, 21 days after application). Further, the “Growth inhibition rate (%) Observed” value worked out at 93% in assay [1] (0.11 g/a, 2.8 to 3.2 leaf stage, 19 days after application, Test Examples 62-65); 67% in assay [1] (0.11 g/a, 2.8 to 3.2 leaf stage, 21 days after application, Test Examples 39-43); 53% in assay [1] (0.11 g/a, 2.8 to 3.4 leaf stage, 14 days after application, Test Examples 66-72); 60% in assay [1] (0.11 g/a, 3.0 to 3.3 leaf stage, 21 days after application); 98% in assay [1] (0.165 g/a, 1.0 to 3.0 leaf stage, 21 days after application); 94% in assay [1] (0.165 g/a, 2.8 to 3.2 leaf stage, 19 days after application, Test Examples 62-65). The “Growth inhibition rate (%) Observed” value is 78% in assay [1] (0.165 g/a, 2.8 to 3.2 leaf stage, 21 days after application, Test Examples 39-43); 70% in assay [1] (0.165 g/a, 2.8 to 3.4 leaf stage, 14 days after application, Test Examples 66-72); 75% in assay [1] (0.165 g/a, 3.0 to 3.3 leaf stage, 21 days after application); 65% in assay [2] (0.11 g/a, 3.8 to 4.2 leaf stage, 21 days after application, Test Example 61).
`CCOC(=O)COc1ccc(Cl)cc1C` [Compound C2, MCP ethyl]: the “Growth inhibition rate (%) Observed” value amounted to 13% in assay [2] (setting [3]); 23% in assay [2] (setting [4]); 20% in assay [2] (setting [5]); 35% in assay [2] (setting [6]); 45% in assay [2] (setting [7]); 68% in assay [2] (setting [8]).
Turning to `CCOC(=O)COc1ccc(Cl)cc1Cl` [Compound C6, 2,4-D ethyl], the “Growth inhibition rate (%) Observed” value in assay [2] (setting [3]) is given as 23%; in assay [2] (setting [4]), 33%; in assay [2] (setting [5]) it was 20%; in assay [2] (setting [6]), 53%; in assay [2] (setting [7]) it was 45%; in assay [2] (setting [8]), 68%.

The record behind these values is patent US20070232492A1, “Herbicidal Composition” (Ishihara Sangyo Kaisha, LTD., priority 2004, published 2007).
